Drawing on patent US20250346574A1, “PYRIDINYL SUBSTITUTED OXOISOINDOLINE COMPOUNDS FOR THE TREATMENT OF CANCER” (Bristol-Myers Squibb Company, priority 2021, published 2025), this text covers DC50 for 28 compounds.

What is called DC50 is the midpoint of the concentration-degradation curve.

Helios, sequence (Q9UKS7 whole entry): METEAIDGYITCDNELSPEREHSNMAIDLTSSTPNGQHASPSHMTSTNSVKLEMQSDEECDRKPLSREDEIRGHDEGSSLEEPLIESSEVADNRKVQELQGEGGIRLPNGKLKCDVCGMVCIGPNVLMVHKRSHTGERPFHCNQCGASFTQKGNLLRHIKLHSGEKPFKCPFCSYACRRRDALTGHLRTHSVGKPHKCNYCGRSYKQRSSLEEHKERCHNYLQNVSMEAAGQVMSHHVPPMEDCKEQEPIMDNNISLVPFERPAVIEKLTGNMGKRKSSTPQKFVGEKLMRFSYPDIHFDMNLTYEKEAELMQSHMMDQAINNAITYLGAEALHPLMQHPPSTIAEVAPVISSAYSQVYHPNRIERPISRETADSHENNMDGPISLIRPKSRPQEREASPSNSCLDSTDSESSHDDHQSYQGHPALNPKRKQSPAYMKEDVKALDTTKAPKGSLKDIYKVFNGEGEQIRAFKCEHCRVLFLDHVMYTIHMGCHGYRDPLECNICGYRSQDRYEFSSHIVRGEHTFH
Helios, sequence (Q96SW2 whole entry): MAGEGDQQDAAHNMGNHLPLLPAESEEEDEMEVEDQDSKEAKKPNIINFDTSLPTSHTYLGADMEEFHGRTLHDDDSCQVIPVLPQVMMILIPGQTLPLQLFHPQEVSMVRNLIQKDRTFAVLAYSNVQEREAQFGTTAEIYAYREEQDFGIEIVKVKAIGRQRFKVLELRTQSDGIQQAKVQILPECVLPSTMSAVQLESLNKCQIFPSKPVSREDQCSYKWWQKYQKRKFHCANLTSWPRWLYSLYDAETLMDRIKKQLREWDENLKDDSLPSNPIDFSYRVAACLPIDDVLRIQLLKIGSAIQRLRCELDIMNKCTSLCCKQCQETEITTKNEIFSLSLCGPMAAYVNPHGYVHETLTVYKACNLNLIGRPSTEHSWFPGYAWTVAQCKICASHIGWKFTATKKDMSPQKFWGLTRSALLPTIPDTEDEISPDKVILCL
Helios, sequence (Q16531 whole entry partner): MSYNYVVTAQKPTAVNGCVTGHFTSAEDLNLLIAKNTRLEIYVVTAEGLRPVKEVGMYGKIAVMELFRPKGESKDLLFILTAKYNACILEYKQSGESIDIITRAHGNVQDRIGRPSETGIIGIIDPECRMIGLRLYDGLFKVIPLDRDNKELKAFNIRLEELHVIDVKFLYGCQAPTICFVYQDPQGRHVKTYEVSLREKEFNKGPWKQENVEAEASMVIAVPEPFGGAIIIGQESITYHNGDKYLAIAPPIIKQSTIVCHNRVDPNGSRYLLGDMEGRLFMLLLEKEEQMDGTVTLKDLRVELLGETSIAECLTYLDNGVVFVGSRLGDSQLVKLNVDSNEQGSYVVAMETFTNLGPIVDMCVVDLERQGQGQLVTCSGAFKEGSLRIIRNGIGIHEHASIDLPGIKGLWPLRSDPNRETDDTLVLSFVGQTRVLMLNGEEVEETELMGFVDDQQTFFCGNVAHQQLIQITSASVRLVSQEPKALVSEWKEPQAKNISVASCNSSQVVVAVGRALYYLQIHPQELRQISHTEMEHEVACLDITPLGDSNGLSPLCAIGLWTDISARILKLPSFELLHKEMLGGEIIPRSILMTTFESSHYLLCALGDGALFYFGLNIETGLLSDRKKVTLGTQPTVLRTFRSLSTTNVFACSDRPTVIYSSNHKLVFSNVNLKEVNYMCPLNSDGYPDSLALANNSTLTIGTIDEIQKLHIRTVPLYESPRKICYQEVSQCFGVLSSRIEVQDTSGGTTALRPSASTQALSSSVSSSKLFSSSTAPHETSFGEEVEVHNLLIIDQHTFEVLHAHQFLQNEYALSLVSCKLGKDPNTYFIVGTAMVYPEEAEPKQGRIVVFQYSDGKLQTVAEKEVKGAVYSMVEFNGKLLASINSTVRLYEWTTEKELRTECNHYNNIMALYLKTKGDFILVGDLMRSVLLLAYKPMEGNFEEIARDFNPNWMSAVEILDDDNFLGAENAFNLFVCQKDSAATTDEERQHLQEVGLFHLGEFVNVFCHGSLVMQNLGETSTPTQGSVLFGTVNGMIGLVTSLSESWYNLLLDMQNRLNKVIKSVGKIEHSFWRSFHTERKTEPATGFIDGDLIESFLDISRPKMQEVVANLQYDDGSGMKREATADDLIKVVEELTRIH

This experiment addresses Helios (Homo sapiens, UniProt Q96SW2+Q9UKS7). As to the kind of experiment: Helios Human T Regulatory Cells Degradation Assay. The conditions noted are these: cryopreserved human T regulatory cells, incubated 20 hours, Helios-APC antibody staining, flow cytometry; read-out: hTreg Helios DC50. Details: fluorescently labelled antibodies against Helios in 1× Permeabilization buffer; endogenous in cells; host or cells: cryopreserved human T regulatory cells. The class given is cell-based. The method in brief:
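Cryopreserved human Treg cells thawed in RPMI+10% FBS+20 ng/mL IL-2, rested 3 h, then incubated with compound 20 hours at 37° C, 5% CO2. Near-IR viability stain, permeabilization, flow cytometry read-out.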
In general terms: Flow cytometry measures light scatter and fluorescence of single cells or particles in a stream.
With `CC(C)(C)OC(=O)N1CCC12CCCN(Cc1ccnc(-c3ccc4c(c3)CN(C3CCC(=O)NC3=O)C4=O)c1F)C2` (stereo not shown) [Example 216, tert-butyl 6-((2-(2-(2,6-dioxopiperidin-3-yl)-1-oxoisoindolin-5-yl)-3-fluoropyridin-4-yl)methyl)-1,6-diazaspiro[3.5]nonane-1-carboxylate], the DC50 is not below 10000 nM. On to `C[C@@](O)(c1ccccc1)[C@H]1CCCN1Cc1ccnc(-c2ccc3c(c2)CN(C2CCC(=O)NC2=O)C3=O)c1F` (stereo partly drawn) [Example 217, 3-(5-(3-fluoro-4-(((R)-2-((R)-1-hydroxy-1-phenylethyl)pyrrolidin-1-yl)methyl)pyridin-2-yl)-1-oxoisoindolin-2-yl)piperidine-2,6-dione], for which the half-maximal degradation concentration (DC50) was 390 nM.

Regarding `C[C@](O)(c1ccccc1)[C@H]1CCCN1Cc1ccnc(-c2ccc3c(c2)CN(C2CCC(=O)NC2=O)C3=O)c1F` (stereo partly drawn) [Example 218, 3-(5-(3-fluoro-4-(((R)-2-((S)-1-hydroxy-1-phenylethyl)pyrrolidin-1-yl)methyl)pyridin-2-yl)-1-oxoisoindolin-2-yl)piperidine-2,6-dione], the DC50 worked out at 4130 nM. As for `O=C1CCC(N2Cc3cc(-c4nccc(CN5CC6CC(C5)C6O)c4F)ccc3C2=O)C(=O)N1` (stereo not shown) [Example 219, 3-(5-(3-fluoro-4-((6-hydroxy-3-azabicyclo[3.1.1]heptan-3-yl)methyl)pyridin-2-yl)-1-oxoisoindolin-2-yl)piperidine-2,6-dione], the DC50 amounted to 9.8 nM. Consider `CC1(O)CCCN(Cc2ccnc(-c3ccc4c(c3)CN(C3CCC(=O)NC3=O)C4=O)c2F)CC1` (stereo not shown) [Example 220, 3-(5-(3-fluoro-4-((4-hydroxy-4-methylazepan-1-yl)methyl)pyridin-2-yl)-1-oxoisoindolin-2-yl)piperidine-2,6-dione], for which the DC50 was found to be 34.2 nM. Take `CC1(C)CN(Cc2ccnc(-c3ccc4c(c3)CN(C3CCC(=O)NC3=O)C4=O)c2F)CCC1O` (stereo not shown) [Example 221, 3-(5-(3-fluoro-4-((4-hydroxy-3,3-dimethylpiperidin-1-yl)methyl)pyridin-2-yl)-1-oxoisoindolin-2-yl)piperidine-2,6-dione]: the DC50 was determined as 13900 nM. Next, `O=C1CCC(N2Cc3cc(-c4nccc(CN5CCC6(CC5)CC(O)CO6)c4F)ccc3C2=O)C(=O)N1` (stereo not shown) [Example 222, 3-(5-(3-fluoro-4-((3-hydroxy-1-oxa-8-azaspiro[4.5]decan-8-yl)methyl)pyridin-2-yl)-1-oxoisoindolin-2-yl)piperidine-2,6-dione]: 2760 nM; `CC1(O)CN(Cc2ccnc(-c3ccc4c(c3)CN(C3CCC(=O)NC3=O)C4=O)c2F)C1` (stereo not shown) [Example 224, 3-(5-(3-fluoro-4-((3-hydroxy-3-methylazetidin-1-yl)methyl)pyridin-2-yl)-1-oxoisoindolin-2-yl)piperidine-2,6-dione]: 72.9 nM.

Regarding `O=C1CCC(N2Cc3cc(-c4nccc(CN5CCC6(CC5)CC(O)C6)c4F)ccc3C2=O)C(=O)N1` (stereo not shown) [Example 225, 3-(5-(3-fluoro-4-((2-hydroxy-7-azaspiro[3.5]nonan-7-yl)methyl)pyridin-2-yl)-1-oxoisoindolin-2-yl)piperidine-2,6-dione], the DC50 is 29.3 nM. As to `O=C1CCC(N2Cc3cc(-c4nccc(CN5CCC(O)CC5)c4F)ccc3C2=O)C(=O)N1` (stereo not shown) [Example 226, 3-(5-(3-fluoro-4-((4-hydroxypiperidin-1-yl)methyl)pyridin-2-yl)-1-oxoisoindolin-2-yl)piperidine-2,6-dione], the DC50 turned out to be 51.5 nM. Next, `CC(=O)N1CC2CCC(C1)N2Cc1ccnc(-c2ccc3c(c2)CN(C2CCC(=O)NC2=O)C3=O)c1F` (stereo not shown) [Example 227, 3-(5-(4-((3-acetyl-3,8-diazabicyclo[3.2.1]octan-8-yl)methyl)-3-fluoropyridin-2-yl)-1-oxoisoindolin-2-yl)piperidine-2,6-dione]: not below 10000 nM. On to `C[C@@H]1CN(Cc2ccnc(-c3ccc4c(c3)CN(C3CCC(=O)NC3=O)C4=O)c2F)C[C@H]1O` (stereo partly drawn) [Example 232, 3-(5-(3-fluoro-4-(((3S,4R)-3-hydroxy-4-methylpyrrolidin-1-yl)methyl)pyridin-2-yl)-1-oxoisoindolin-2-yl)piperidine-2,6-dione], for which the 50% degradation concentration (DC50) worked out at 38.6 nM.

As for `O=C1CCC(N2Cc3cc(-c4nccc(CN5CCC(O)(c6ccc(F)cc6)C5)c4F)ccc3C2=O)C(=O)N1` (stereo not shown) [Example 234, 3-(5-(3-fluoro-4-((3-(4-fluorophenyl)-3-hydroxypyrrolidin-1-yl)methyl)pyridin-2-yl)-1-oxoisoindolin-2-yl)piperidine-2,6-dione], the DC50 stood at 8410 nM. `O=C1CCC(N2Cc3cc(-c4nccc(CN5CCC(O)(Cc6ccccc6)CC5)c4F)ccc3C2=O)C(=O)N1` (stereo not shown) [Example 235, 3-(5-(4-((4-benzyl-4-hydroxypiperidin-1-yl)methyl)-3-fluoropyridin-2-yl)-1-oxoisoindolin-2-yl)piperidine-2,6-dione]: the DC50 came to 330 nM. As for `CC(C)(C)OC(=O)N[C@H]1C[C@H](F)CN(Cc2ccnc(-c3ccc4c(c3)CN(C3CCC(=O)NC3=O)C4=O)c2F)C1` (stereo partly drawn) [Example 236, tert-butyl ((3S,5S)-1-((2-(2-(2,6-dioxopiperidin-3-yl)-1-oxoisoindolin-5-yl)-3-fluoropyridin-4-yl)methyl)-5-fluoropiperidin-3-yl)carbamate], the DC50 was not below 10000 nM. As to `CC1CC(O)(c2ccc(F)cc2)CN1Cc1ccnc(-c2ccc3c(c2)CN(C2CCC(=O)NC2=O)C3=O)c1F` (stereo not shown) [Example 237, 3-(5-(3-fluoro-4-((4-(4-fluorophenyl)-4-hydroxy-2-methylpyrrolidin-1-yl)methyl)pyridin-2-yl)-1-oxoisoindolin-2-yl)piperidine-2,6-dione], the DC50 was not below 10000 nM. `O=C1CCC(N2Cc3cc(-c4nccc(CN5CCC(O)(c6ccccc6Cl)C5)c4F)ccc3C2=O)C(=O)N1` (stereo not shown) [Example 238, 3-(5-(4-((3-(2-chlorophenyl)-3-hydroxypyrrolidin-1-yl)methyl)-3-fluoropyridin-2-yl)-1-oxoisoindolin-2-yl)piperidine-2,6-dione]: the DC50 was 172 nM.

On to `Cc1cc(C2CCCN2Cc2ccnc(-c3ccc4c(c3)CN(C3CCC(=O)NC3=O)C4=O)c2F)on1` (stereo not shown) [Example 244, 3-(5-(3-fluoro-4-((2-(3-methylisoxazol-5-yl)pyrrolidin-1-yl)methyl)pyridin-2-yl)-1-oxoisoindolin-2-yl)piperidine-2,6-dione], for which the DC50 stood at 242 nM. Turning to `COC(=O)N[C@H]1CN(Cc2ccnc(-c3ccc4c(c3)CN(C3CCC(=O)NC3=O)C4=O)c2F)C[C@@H]1O` (stereo partly drawn) [Example 248, methyl ((3S,4S)-1-((2-(2-(2,6-dioxopiperidin-3-yl)-1-oxoisoindolin-5-yl)-3-fluoropyridin-4-yl)methyl)-4-hydroxypyrrolidin-3-yl)carbamate], the DC50 is not below 10000 nM.

In the case of `O=C1CCC(N2Cc3cc(-c4nccc(CN5CCC6(CC5)OCc5ccccc56)c4F)ccc3C2=O)C(=O)N1` (stereo not shown) [Example 249, 3-(5-(4-((3H-spiro[isobenzofuran-1,4′-piperidin]-1′-yl)methyl)-3-fluoropyridin-2-yl)-1-oxoisoindolin-2-yl)piperidine-2,6-dione], the DC50 is not below 10000 nM.

As for `O=C1CCC(N2Cc3cc(-c4nccc(CN5CCCC(O)(c6ccccc6)C5)c4F)ccc3C2=O)C(=O)N1` (stereo not shown) [Example 250, 3-(5-(3-fluoro-4-((3-hydroxy-3-phenylpiperidin-1-yl)methyl)pyridin-2-yl)-1-oxoisoindolin-2-yl)piperidine-2,6-dione], the DC50 is not below 10000 nM. Turning to `CC(=O)N1CC2(CCN(Cc3ccnc(-c4ccc5c(c4)CN(C4CCC(=O)NC4=O)C5=O)c3F)CC2)C1` (stereo not shown) [Example 251, 3-(5-(4-((2-acetyl-2,7-diazaspiro[3.5]nonan-7-yl)methyl)-3-fluoropyridin-2-yl)-1-oxoisoindolin-2-yl)piperidine-2,6-dione], the DC50 is not below 10000 nM. Turning to `COC(=O)N1CC2(CCN(Cc3ccnc(-c4ccc5c(c4)CN(C4CCC(=O)NC4=O)C5=O)c3F)CC2)C1` (stereo not shown) [Example 252, methyl 7-((2-(2-(2,6-dioxopiperidin-3-yl)-1-oxoisoindolin-5-yl)-3-fluoropyridin-4-yl)methyl)-2,7-diazaspiro[3.5]nonane-2-carboxylate], the DC50 was not below 10000 nM. On to `O=C1CCC(N2Cc3cc(-c4nccc(CN5CCCC(F)(c6ccccc6)C5)c4F)ccc3C2=O)C(=O)N1` (stereo not shown) [Example 253, 3-(5-(3-fluoro-4-((3-fluoro-3-phenylpiperidin-1-yl)methyl)pyridin-2-yl)-1-oxoisoindolin-2-yl)piperidine-2,6-dione], for which the DC50 was not below 10000 nM. Regarding `O=C1CCC(N2Cc3cc(-c4nccc(CN5CCc6[nH]ncc6C5)c4F)ccc3C2=O)C(=O)N1` (stereo not shown) [Example 254, 3-(5-(3-fluoro-4-((1,4,6,7-tetrahydro-5H-pyrazolo[4,3-c]pyridin-5-yl)methyl)pyridin-2-yl)-1-oxoisoindolin-2-yl) piperidine-2,6-dione], the DC50 is not below 10000 nM. Consider `CC1(O)CC2CN(Cc3ccnc(-c4ccc5c(c4)CN(C4CCC(=O)NC4=O)C5=O)c3F)CC2C1` (stereo not shown) [Example 255, 3-(5-(3-fluoro-4-((5-hydroxy-5-methylhexahydrocyclopenta[c]pyrrol-2(1H)-yl)methyl)pyridin-2-yl)-1-oxoisoindolin-2-yl)piperidine-2,6-dione], for which the DC50 was 492 nM.

With `Cc1ccc(C)c(C2(O)CCN(Cc3ccnc(-c4ccc5c(c4)CN(C4CCC(=O)NC4=O)C5=O)c3F)C2)c1` (stereo not shown) [Example 256, 3-(5-(4-((3-(2,5-dimethylphenyl)-3-hydroxypyrrolidin-1-yl)methyl)-3-fluoropyridin-2-yl)-1-oxoisoindolin-2-yl)piperidine-2,6-dione], the half-maximal degradation concentration (DC50) was determined as 1140 nM.

For `O=C1CCC(N2Cc3cc(-c4nccc(CN5CCC(O)(c6ccccc6)C5)c4F)ccc3C2=O)C(=O)N1` (stereo not shown) [Example 257, 3-(5-(3-fluoro-4-((3-hydroxy-3-phenylpyrrolidin-1-yl)methyl)pyridin-2-yl)-1-oxoisoindolin-2-yl)piperidine-2,6-dione], the half-maximal degradation concentration (DC50) was not below 10000 nM.
